Where two headings read alike, the source gives them in different places.
Legend:
[1] = test system: SARS-CoV-2 Omicron BA.2; parameters: species or system BALB/c mice; conditions: mouse, in vivo
[2] = test system: SARS-CoV-2/C57MA14; parameters: species or system BALB/c mice; conditions: mouse, in vivo
[3] = test system: Influenza A H3N2 virus (H3N2); format: cell-based

Structure (SMILES): O=C(O[C@@H]1Cc2c(O)cc(O)cc2O[C@@H]1c1cc(O)c(O)c(O)c1)c1cc(O)c(O)c(O)c1 [EGCG, Epigallocatechin gallate]
- nucleic acid loads of SARS-CoV-2 Omicron BA.2 in lungs and turbinates [1]: significantly reduced
- mice protected from death caused by lethal dose infection [2]: 60%
- viral nucleic acid loads in lungs and turbinates [2]: significantly reduce
- CPE test, virus replication in cell wells (wells 1-10) ([3]; 0.2 mM EGCG + H3N2 virus, 1 minute, first experiment, dilution factor 10^1): +
- CPE test, virus replication in cell wells (wells 1-10) ([3]; 0.2 mM EGCG + H3N2 virus, 1 minute, first experiment, dilution factor 10^2): +
- CPE test, virus replication in cell wells (wells 1-10) ([3]; 0.2 mM EGCG + H3N2 virus, 1 minute, first experiment, dilution factor 10^3): +
- CPE test, virus replication in cell wells (wells 1-10) ([3]; 0.2 mM EGCG + H3N2 virus, 1 minute, first experiment, dilution factor 10^4): +
- CPE test, virus replication in cell wells (wells 1-10) ([3]; 0.2 mM EGCG + H3N2 virus, 1 minute, first experiment, dilution factor 10^5): + and −
- CPE test, virus replication in cell wells (wells 1-10) ([3]; 0.2 mM EGCG + H3N2 virus, 1 minute, first experiment, dilution factor 10^6): −
- CPE test, virus replication in cell wells (wells 1-10) ([3]; 0.2 mM EGCG + H3N2 virus, 1 minute, first experiment, dilution factor 10^7): −
- CPE test, virus replication in cell wells (wells 1-10) ([3]; 0.2 mM EGCG + H3N2 virus, 1 minute, first experiment, dilution factor 10^8): −
- CPE test, virus replication in cell wells (wells 1-10) ([3]; 0.2 mM EGCG + H3N2 virus, 1 minute, second experiment, dilution factor 10^1): +
- CPE test, virus replication in cell wells (wells 1-10) ([3]; 0.2 mM EGCG + H3N2 virus, 1 minute, second experiment, dilution factor 10^2): +
- CPE test, virus replication in cell wells (wells 1-10) ([3]; 0.2 mM EGCG + H3N2 virus, 1 minute, second experiment, dilution factor 10^3): +
- CPE test, virus replication in cell wells (wells 1-10) ([3]; 0.2 mM EGCG + H3N2 virus, 1 minute, second experiment, dilution factor 10^4): +
- CPE test, virus replication in cell wells (wells 1-10) ([3]; 0.2 mM EGCG + H3N2 virus, 1 minute, second experiment, dilution factor 10^5): + and −
- CPE test, virus replication in cell wells (wells 1-10) ([3]; 0.2 mM EGCG + H3N2 virus, 1 minute, second experiment, dilution factor 10^6): −
- CPE test, virus replication in cell wells (wells 1-10) ([3]; 0.2 mM EGCG + H3N2 virus, 1 minute, second experiment, dilution factor 10^7): −
- CPE test, virus replication in cell wells (wells 1-10) ([3]; 0.2 mM EGCG + H3N2 virus, 1 minute, second experiment, dilution factor 10^8): −
- CPE test, virus replication in cell wells 1-10 ([3]; 0.2 mM EGCG + H3N2 virus, 1 minute, third experiment, dilution factor 10^1): +
- CPE test, virus replication in cell wells 1-10 ([3]; 0.2 mM EGCG + H3N2 virus, 1 minute, third experiment, dilution factor 10^2): +
- CPE test, virus replication in cell wells 1-10 ([3]; 0.2 mM EGCG + H3N2 virus, 1 minute, third experiment, dilution factor 10^3): +
- CPE test, virus replication in cell wells 1-10 ([3]; 0.2 mM EGCG + H3N2 virus, 1 minute, third experiment, dilution factor 10^4): +
- CPE test, virus replication in cell wells 1-10 ([3]; 0.2 mM EGCG + H3N2 virus, 1 minute, third experiment, dilution factor 10^5): + and −
- CPE test, virus replication in cell wells 1-10 ([3]; 0.2 mM EGCG + H3N2 virus, 1 minute, third experiment, dilution factor 10^6): −
- CPE test, virus replication in cell wells 1-10 ([3]; 0.2 mM EGCG + H3N2 virus, 1 minute, third experiment, dilution factor 10^7): −
- CPE test, virus replication in cell wells 1-10 ([3]; 0.2 mM EGCG + H3N2 virus, 1 minute, third experiment, dilution factor 10^8): −
- CPE test, virus replication in cell wells 1-10 ([3]; 0.2 mM EGCG + H3N2 virus, 5 minute, first experiment, dilution factor 10^1): +
- CPE test, virus replication in cell wells 1-10 ([3]; 0.2 mM EGCG + H3N2 virus, 5 minute, first experiment, dilution factor 10^2): +
- CPE test, virus replication in cell wells 1-10 ([3]; 0.2 mM EGCG + H3N2 virus, 5 minute, first experiment, dilution factor 10^3): +
- CPE test, virus replication in cell wells 1-10 ([3]; 0.2 mM EGCG + H3N2 virus, 5 minute, first experiment, dilution factor 10^4): +
- CPE test, virus replication in cell wells 1-10 ([3]; 0.2 mM EGCG + H3N2 virus, 5 minute, first experiment, dilution factor 10^5): + and −
- CPE test, virus replication in cell wells 1-10 ([3]; 0.2 mM EGCG + H3N2 virus, 5 minute, first experiment, dilution factor 10^6): −
- CPE test, virus replication in cell wells 1-10 ([3]; 0.2 mM EGCG + H3N2 virus, 5 minute, first experiment, dilution factor 10^7): −
- CPE test, virus replication in cell wells 1-10 ([3]; 0.2 mM EGCG + H3N2 virus, 5 minute, first experiment, dilution factor 10^8): −
- CPE test, virus replication in cell wells 1-10 ([3]; 0.2 mM EGCG + H3N2 virus, 5 minute, second experiment, dilution factor 10^1): +
- CPE test, virus replication in cell wells 1-10 ([3]; 0.2 mM EGCG + H3N2 virus, 5 minute, second experiment, dilution factor 10^2): +
- CPE test, virus replication in cell wells 1-10 ([3]; 0.2 mM EGCG + H3N2 virus, 5 minute, second experiment, dilution factor 10^3): +
- CPE test, virus replication in cell wells 1-10 ([3]; 0.2 mM EGCG + H3N2 virus, 5 minute, second experiment, dilution factor 10^4): +
- CPE test, virus replication in cell wells 1-10 ([3]; 0.2 mM EGCG + H3N2 virus, 5 minute, second experiment, dilution factor 10^5): − and +
- CPE test, virus replication in cell wells 1-10 ([3]; 0.2 mM EGCG + H3N2 virus, 5 minute, second experiment, dilution factor 10^6): −
- CPE test, virus replication in cell wells 1-10 ([3]; 0.2 mM EGCG + H3N2 virus, 5 minute, second experiment, dilution factor 10^7): −
- CPE test, virus replication in cell wells 1-10 ([3]; 0.2 mM EGCG + H3N2 virus, 5 minute, second experiment, dilution factor 10^8): −
- residual virus titer of EGCG+virus group (Karber method) ([3]; 0.2 mM EGCG, H3N2 virus, 1 minute): 10^5 TCID50/50 μL
- average inactivation efficiency against virus ([3]; 0.2 mM EGCG, H3N2 virus, 1 minute, three experiments): 28.93%
- inactivation efficiency against the virus ([3]; 0.2 mM EGCG, H3N2 virus, 5 minutes, single experiment): 84.15%
- average inactivation efficiency against virus ([3]; 0.2 mM EGCG, H3N2 virus, 5 minutes, two experiments): 76.27%
- CPE test, virus replication in cell wells (wells 1-10) ([3]; 1 mM EGCG + H3N2 virus, 1 minute, first experiment, dilution factor 10^2): +
- CPE test, virus replication in cell wells (wells 1-10) ([3]; 1 mM EGCG + H3N2 virus, 1 minute, first experiment, dilution factor 10^3): +
- CPE test, virus replication in cell wells (wells 1-10) ([3]; 1 mM EGCG + H3N2 virus, 1 minute, first experiment, dilution factor 10^4): +
- CPE test, virus replication in cell wells (wells 1-10) ([3]; 1 mM EGCG + H3N2 virus, 1 minute, first experiment, dilution factor 10^5): + and −
- CPE test, virus replication in cell wells (wells 1-10) ([3]; 1 mM EGCG + H3N2 virus, 1 minute, first experiment, dilution factor 10^6): −
- CPE test, virus replication in cell wells (wells 1-10) ([3]; 1 mM EGCG + H3N2 virus, 1 minute, first experiment, dilution factor 10^7): −
- CPE test, virus replication in cell wells (wells 1-10) ([3]; 1 mM EGCG + H3N2 virus, 1 minute, first experiment, dilution factor 10^8): −
- CPE test, virus replication in cell wells (wells 1-10) ([3]; 1 mM EGCG + H3N2 virus, 1 minute, second experiment, dilution factor 10^1): +
- CPE test, virus replication in cell wells (wells 1-10) ([3]; 1 mM EGCG + H3N2 virus, 1 minute, second experiment, dilution factor 10^2): +
- CPE test, virus replication in cell wells (wells 1-10) ([3]; 1 mM EGCG + H3N2 virus, 1 minute, second experiment, dilution factor 10^3): +

— patent US20240238242A1, “EGCG buccal tablet and use thereof” (priority 2023, published 2024)
